From the OPERA property sets (Mansouri et al. 2018)

Settings: for log10 BCF / log10 biotransformation half-life (days): fish

CC(C)(S)C(=O)O
melting point: 47 °C

BrCCOc1ccccc1
melting point: 39 °C

CCc1ncc(C)cc1C
boiling point: 198 °C

CC(C)OC(=O)C(C)O (centres undefined)
boiling point: 167 °C

c1csc(-c2cccs2)c1
boiling point: 260 °C
melting point: 33 °C

Cc1ccc(Cl)cc1C
boiling point: 194 °C
melting point: -6 °C

CC(C)(O)CC(C)(O)c1ccc(Cl)cc1 (centres undefined)
melting point: 76.5 °C

O=C(O)c1cccc(O)c1
melting point: 202 °C
ready biodegradability: readily biodegradable

CC(C)C1=CC2=CC[C@@H]3[C@](C)(CCC[C@@]3(C)C(=O)O)[C@H]2CC1
melting point: 174 °C
ready biodegradability: not readily biodegradable
log10 BCF: 1.97

COC(=O)c1ccc(Cl)cc1
melting point: 43.5 °C

Cc1cc(Br)ccc1Br
boiling point: 236 °C
melting point: 5.6 °C

O=C(O)c1ccc(NS(=O)(=O)Cc2ccccc2)cc1
melting point: 230 °C

O=C(O)C(c1ccc(Cl)cc1)c1ccc(Cl)cc1
melting point: 168 °C

Cc1cccc(OCC(O)CNC(C)C)c1 (centres undefined)
melting point: 76 °C

Oc1ccc2c(c1)[C@@]13CCCC[C@H]1[C@@H](C2)N(CC1CC1)CC3
melting point: 188 °C

Nc1ccc(N)c2c1C(=O)c1cccc([N+](=O)[O-])c1C2=O
melting point: 257 °C

CCC(=O)C(=O)CC
boiling point: 130 °C
melting point: -10 °C

OCC#CCO
boiling point: 238 °C
log10 vapour pressure (mmHg): -3.25
melting point: 50 °C

Nc1c(F)c(F)c(F)c(F)c1F
boiling point: 153 °C
melting point: 35.5 °C

CCC(=O)Nc1cc(N(CCOC(C)=O)CCOC(C)=O)ccc1N=Nc1ccc([N+](=O)[O-])cc1Cl
ready biodegradability: not readily biodegradable

CCN1CN(CC)CN(CC)C1
boiling point: 208 °C
melting point: 70 °C
ready biodegradability: readily biodegradable

CC(C)OP(=O)(OC(C)C)SCc1ccccc1
log10 Koc (L/kg): 2.26
log10 vapour pressure (mmHg): -4.39
log10 BCF: 0.94
log10 biotransformation half-life (days): -1.2

CCc1ccc(C(C)C)cc1
boiling point: 197 °C

CN(C)c1ccccc1N(C)C
boiling point: 216 °C
melting point: 8.9 °C

CC(=O)Cc1c[nH]c2ccccc12
melting point: 116 °C

Cc1c(NC(C)C)c(=O)n(-c2ccccc2)n1C
melting point: 80 °C

O=C(O)C(Br)C(Br)C(=O)O (centres undefined)
ready biodegradability: not readily biodegradable
log10 BCF: 0.81

CCc1cccs1
boiling point: 134 °C
log10 vapour pressure (mmHg): 1.05

CCCCCCC#CC(=O)O
melting point: -8 °C

CCOC(=O)C1CC(=O)C(=C(O)C2CC2)C(=O)C1 (centres undefined)
log10 vapour pressure (mmHg): -4.79
melting point: 36 °C

COC(F)(F)C(F)(F)C(F)(F)F
log10 vapour pressure (mmHg): 2.75

Fc1cc(F)c(F)c(F)c1
boiling point: 84.4 °C
log10 vapour pressure (mmHg): 1.86
melting point: -48 °C

CCC=CC(C)=O
boiling point: 140 °C

CC(C)Cc1ccc(N)cc1
boiling point: 238 °C

CCCCC(CC)CO (centres undefined)
log10 vapour pressure (mmHg): -0.867
melting point: -70 °C
ready biodegradability: readily biodegradable

CC(C)(C(=O)O)n1nc2ccccc2n1
melting point: 152 °C

C[Si]1(c2ccccc2)O[Si](C)(c2ccccc2)O[Si](C)(c2ccccc2)O[Si](C)(c2ccccc2)O1 (centres undefined)
melting point: 99 °C

CN1C(=O)C(=NNC(N)=S)c2ccccc21
melting point: 245 °C

CCOc1ccc(OCC)cc1
boiling point: 246 °C
melting point: 72 °C

CCCCCCCCCCCCc1ccccc1
boiling point: 328 °C
log10 vapour pressure (mmHg): -4.29
melting point: 3 °C
ready biodegradability: readily biodegradable

CCOP(=S)(OCC)Oc1ccc(S(C)=O)cc1 (centres undefined)
log10 Koc (L/kg): 2.52
log10 vapour pressure (mmHg): -4.3

CC1=CC(=O)C=CC1=O
melting point: 69 °C

CCCCCCCCCCBr
boiling point: 241 °C
log10 vapour pressure (mmHg): -1.4
melting point: -29.2 °C

CC1COc2ccccc2N1C(=O)C(Cl)Cl (centres undefined)
log10 vapour pressure (mmHg): -5.35
melting point: 108 °C

Cl.N=C(N)SCc1ccc(Cl)cc1
melting point: 197 °C

Cc1c(C)n(C)c2ccccc12
boiling point: 283 °C
melting point: 18 °C

Brc1ccc(Oc2c(Br)cccc2Br)c(Br)c1
log10 BCF: 5.88

Nc1ccc2c(S(=O)(=O)O)cccc2c1S(=O)(=O)O
ready biodegradability: not readily biodegradable

C1C2C3C2C2C1C32 (centres undefined)
boiling point: 112 °C

CC(C)(C)c1ccccc1O
boiling point: 223 °C
log10 vapour pressure (mmHg): -1.05
melting point: -6.8 °C

Nc1ccc(-c2ccccc2N)cc1
boiling point: 363 °C
melting point: 54.5 °C

Cc1cccc([N+](=O)[O-])c1O
log10 Henry constant (atm·m³/mol): -4.47
melting point: 70 °C

CCCCCCCCc1ccc2ccc3cccc4ccc1c2c34
log10 biotransformation half-life (days): 1.26

CCP(CC)CC
boiling point: 129 °C
melting point: -88 °C

CC(=O)c1ccc(C)cc1O
boiling point: 245 °C
melting point: 21 °C

CC(=O)CCCCC(C)=O
melting point: 44 °C

C=CCF
boiling point: -3 °C

CCCCc1ccc(C(=O)O)cc1
melting point: 106 °C

O=P(OCC(Br)CBr)(OCC(Br)CBr)OCC(Br)CBr (centres undefined)
melting point: 5.5 °C
ready biodegradability: readily biodegradable
log10 BCF: 0.51

C1COCO1
boiling point: 78 °C
log10 Henry constant (atm·m³/mol): -4.61
log10 vapour pressure (mmHg): 1.9
melting point: -95 °C

Clc1cccc2cc3ccccc3cc12
melting point: 83.5 °C

CCCCCCCCCCCCCCCCCC(=O)N(CCO)CCO
ready biodegradability: readily biodegradable

C=CC(=O)OCC(F)(F)C(F)F
boiling point: 132 °C

CCCCCC(C)N (centres undefined)
boiling point: 142 °C

C=C[N+](=O)[O-]
boiling point: 98.5 °C
melting point: -55.5 °C

Clc1cc(Cl)c(Oc2cc(Cl)c(Cl)c(Cl)c2Cl)cc1Cl
log10 biotransformation half-life (days): 1.97

CC(C)OC(=O)C(Cl)Cl
boiling point: 164 °C

CC(=O)C(Cl)(Cl)Cl
boiling point: 149 °C

c1ccc(-c2ccccn2)nc1
boiling point: 274 °C
log10 Koc (L/kg): 1.6
melting point: 72 °C

Cc1ccc(Oc2ccc([N+](=O)[O-])cc2)cc1
melting point: 69 °C

Clc1ccc(C(Cl)(Cl)Cl)cc1Cl
boiling point: 283 °C
melting point: 25.8 °C

Fc1cccc(C(F)(F)F)c1
boiling point: 102 °C
melting point: -81.5 °C

CC(C)CCC[C@H](C)O
boiling point: 174 °C
melting point: -105 °C

CC(=O)N(c1ccccc1)c1ccccc1
melting point: 103 °C

CCN(CC)C(=S)[S-].[Na+]
melting point: 98 °C

C1=C\CC/C=C\CC/1
ready biodegradability: not readily biodegradable

OC(CCN1CCCC1)(c1ccccc1)C1CCCCC1 (centres undefined)
melting point: 86 °C

CCCCCCCCCCCCCCCCC(=O)OCC
melting point: 28 °C

CCCCOCCOCCOC(=O)CCCCC(=O)OCCOCCOCCCC
melting point: -47 °C
ready biodegradability: readily biodegradable

O=C(O)C(=O)c1ccccc1
melting point: 66 °C

CCCCC(=O)c1ccccc1
boiling point: 245 °C
melting point: -9.4 °C

O=C(O)c1cc(I)ccc1O
melting point: 190 °C

C=CCN=C(S)NCCO
melting point: 78 °C

ICCI
boiling point: 200 °C
melting point: 83 °C

N#Cc1c[nH]cc1-c1cccc2c1OC(F)(F)O2
log10 vapour pressure (mmHg): -8.53
melting point: 200 °C

CC1(C)CCCc2ccccc21
boiling point: 221 °C

CCCCCCCCSC(=O)Oc1cc(Cl)nnc1-c1ccccc1
log10 vapour pressure (mmHg): -9.01
melting point: 27 °C

Oc1cccc2sccc12
melting point: 79.8 °C

C=CCO
boiling point: 97 °C
log10 Henry constant (atm·m³/mol): -5.3
log10 vapour pressure (mmHg): 1.42
melting point: -129 °C
ready biodegradability: readily biodegradable

CC#Cc1ccccc1
boiling point: 183 °C

Nc1cc(Cl)ccc1Cl
boiling point: 251 °C
melting point: 50 °C
ready biodegradability: not readily biodegradable
log10 BCF: 1.18
log10 biotransformation half-life (days): -1.13

COC(=O)c1ccccc1I
boiling point: 280 °C

C1=C(c2ccccc2)CCCC1
boiling point: 252 °C
melting point: -11 °C

ClC=CCCl
ready biodegradability: not readily biodegradable

C=CCCCCCCCCC
boiling point: 193 °C
log10 vapour pressure (mmHg): -0.307
melting point: -49.2 °C
log10 biotransformation half-life (days): 0.09

NCCCNCCCCNCCCN
melting point: 29 °C

CCC(C)CC(C)C (centres undefined)
boiling point: 110 °C
log10 biodegradation half-life (days): 0.845
log10 vapour pressure (mmHg): 1.48

CCCCCCCCCCCCCCCCCCCCCCCC
boiling point: 391 °C
log10 biodegradation half-life (days): 2.06
log10 vapour pressure (mmHg): -5.39
melting point: 54 °C
ready biodegradability: readily biodegradable

CCCCOC(=O)CC(C)=O
melting point: -35.6 °C
ready biodegradability: readily biodegradable

O=C(Nc1ccc(Oc2ccc(Cl)cc2)c(Cl)c1)c1cc(I)cc(I)c1O
melting point: 169 °C

O=S(=O)(O)c1ccc(Nc2ccccc2)cc1
melting point: 206 °C

C=CCc1ccccc1OCC(O)CNC(C)C (centres undefined)
melting point: 108 °C

COc1ccccc1N=Nc1c(O)ccc2ccccc12
melting point: 183 °C

Cc1cc(C)c(C)cc1C
boiling point: 197 °C
log10 Koc (L/kg): 3.12
log10 biodegradation half-life (days): 0.845
log10 vapour pressure (mmHg): -0.277
melting point: 79.3 °C

c1ccc(CSCc2ccccc2)cc1
melting point: 49.5 °C

CCCSC(C)C
boiling point: 132 °C

CC(=O)Oc1ccc(C)c(C)c1
boiling point: 235 °C
melting point: 22 °C

C=CCCC(C)(C)C
boiling point: 104 °C

O=C1CCCCCCCCCCC(=O)OCCO1
melting point: 18 °C

C=C[C@H]1C[N@@]2CC[C@H]1C[C@H]2[C@H](O)c1ccnc2ccc(OC)cc12.Cl
melting point: 159 °C

C=C(C)C(=O)OCC(CC)(COC(=O)C(=C)C)COC(=O)C(=C)C
ready biodegradability: readily biodegradable

COc1cccc2cccnc12
boiling point: 283 °C
melting point: 49.5 °C

C[SiH](Cl)Cl
boiling point: 41 °C
log10 vapour pressure (mmHg): 2.63
melting point: -93 °C

O=C(CCCN1CCC(O)(c2ccc(Cl)cc2)CC1)c1ccc(F)cc1
melting point: 152 °C

C=C(C)C(C)CC (centres undefined)
boiling point: 84.3 °C
log10 vapour pressure (mmHg): 1.91
melting point: -134 °C

CCCCCCCCCCCCc1ccc(N)cc1
melting point: 40.5 °C
ready biodegradability: readily biodegradable

C=C(C)c1ccc(C)cc1
boiling point: 185 °C
melting point: -20 °C

COP(=O)(OC)O/C(C)=C/C(=O)OC(C)c1ccccc1 (centres undefined)
log10 Koc (L/kg): 2
log10 vapour pressure (mmHg): -4.85

C[C@@H](CN)c1ccccc1
boiling point: 210 °C

CCCC(O)C(CC)CO (centres undefined)
boiling point: 244 °C
log10 vapour pressure (mmHg): -2.52
melting point: -40 °C

O=C(O)c1ccc([N+](=O)[O-])o1
melting point: 186 °C

O=NN1CCCCC1
boiling point: 219 °C

CC(C)OC(=O)OOC(C)(C)C
ready biodegradability: not readily biodegradable

Brc1cc(Br)c(-c2ccccc2)c(Br)c1
log10 BCF: 3.87
log10 biotransformation half-life (days): 1.25

Cc1ccc(P(c2ccc(C)cc2)c2ccc(C)cc2)cc1
melting point: 149 °C
